Legend:
Jurkat cells = test: IL-2 secretion assay in CD3/CD28-activated Jurkat cells (AlphaLISA); format: cell-based, human; conditions: Homo sapiens, CD3/CD28 T Cell Activator, 24 h, IL-2 AlphaLISA
Description: Certain compounds were also evaluated in an IL-2 secretion assay. On the day of the assay, a 16 point, 1:2 master serial dilution of each compound was prepared in Opti-MEM to span a final concentration range of 10 μM to 300 pM. Assays were setup in CORNING® tissue culture-treated 384-well microplates containing 60 nL of each dilution. Jurkat cells grown in RPMI-1640 supplemented with 10% FBS, 1% Glutamax, and 1% Pen/Strep were collected, resuspended in Opti-MEM. 50,000 cells/well and added to the compound plates. After a short spin (1200 rpm for 1 min), the plates were incubated at 37° C. for 1 hour. The cells were activated by adding 15 μL of IMUNOCULT™ Human CD3/CD28 T Cell Activator (STEMCELL Technologies) diluted in Opti-MEM. After 24 h of incubation at 37° C., aliquots of culture supernatants were transferred to OptiPlate-384 (PerkinElmer) microplates. The level of IL-2 secretion in the supernatants was then determined using the IL-2 (human) AlphaLISA Detection Kit (PerkinElmer) according to the manufacturer's recommendations. The AlphaLISA signal was measured using an EnVision plate reader (PerkinElmer). EC50 values were determined by fitting the data to a standard 4-parameter logistic equation. See Table 3 for data for select compounds (IL-2 Secretion (EC50)).

Cbl-b = biological target: T1, Cbl-b (Homo sapiens, UniProt Q13191); test: Cbl-b probe displacement HTRF binding assay; conditions: 0.4 nM biotinylated Cbl-b, 150 nM BODIPY probe
T1 construct: biotin (biotinylated)
Description: The affinity with which compounds of the present disclosure bind to Cbl-b was assessed using probe displacement homologous time resolved fluorescence (HTRF) assays. The assays used a BODIPY™ conjugated probe (Example 54 from WO 2020264398) and biotinylated Cbl-b. The assays were performed in assay buffer consisting of 20 mM Hepes, 150 mM NaCl, 0.01% Triton X-100, 0.5 mM TCEP, 0.01% BSA. On the day of the assay, a 20 point, 1:2 master serial dilution of each compound was prepared in DMSO to span a final concentration range of 10 μM to 0 nM. Two hundred nanoliters of diluted compound was added to each well of a 384-well plate. Fifteen microliters of biotinylated—Cbl-b resuspended in assay buffer were added to each well and the plate incubated for 60 minutes at room temperature prior to addition of 5 μL of BODIPY™ probe in assay buffer. Final assay conditions included 0.4 nM of Cbl-b and 150 nM of BODIPY™ probe. After a further 15 minutes of incubation at room temperature, 5 μl of Streptavidin-Terbium cryptate reagent at 5-fold final concentration was added to each well of the 384-well plate. Binding of a probe to Cbl-b results in an increase of HTRF signal. HTRF signal was measured by Envision plate reader, while competition of a compound of the present disclosure with probe results in a decrease of signal. Percentage maximum activity in each test well was calculated based on DMSO (maximum activity, 0% displacement) and no protein control wells (baseline activity, 100% displacement). Binding affinity was determined from a dose response curve fitted using a standard four parameter fit equation. See Table 3 for data for compounds (Cbl-b Binding (IC50)).

T1 sequence (Q13191 whole entry, species assumed): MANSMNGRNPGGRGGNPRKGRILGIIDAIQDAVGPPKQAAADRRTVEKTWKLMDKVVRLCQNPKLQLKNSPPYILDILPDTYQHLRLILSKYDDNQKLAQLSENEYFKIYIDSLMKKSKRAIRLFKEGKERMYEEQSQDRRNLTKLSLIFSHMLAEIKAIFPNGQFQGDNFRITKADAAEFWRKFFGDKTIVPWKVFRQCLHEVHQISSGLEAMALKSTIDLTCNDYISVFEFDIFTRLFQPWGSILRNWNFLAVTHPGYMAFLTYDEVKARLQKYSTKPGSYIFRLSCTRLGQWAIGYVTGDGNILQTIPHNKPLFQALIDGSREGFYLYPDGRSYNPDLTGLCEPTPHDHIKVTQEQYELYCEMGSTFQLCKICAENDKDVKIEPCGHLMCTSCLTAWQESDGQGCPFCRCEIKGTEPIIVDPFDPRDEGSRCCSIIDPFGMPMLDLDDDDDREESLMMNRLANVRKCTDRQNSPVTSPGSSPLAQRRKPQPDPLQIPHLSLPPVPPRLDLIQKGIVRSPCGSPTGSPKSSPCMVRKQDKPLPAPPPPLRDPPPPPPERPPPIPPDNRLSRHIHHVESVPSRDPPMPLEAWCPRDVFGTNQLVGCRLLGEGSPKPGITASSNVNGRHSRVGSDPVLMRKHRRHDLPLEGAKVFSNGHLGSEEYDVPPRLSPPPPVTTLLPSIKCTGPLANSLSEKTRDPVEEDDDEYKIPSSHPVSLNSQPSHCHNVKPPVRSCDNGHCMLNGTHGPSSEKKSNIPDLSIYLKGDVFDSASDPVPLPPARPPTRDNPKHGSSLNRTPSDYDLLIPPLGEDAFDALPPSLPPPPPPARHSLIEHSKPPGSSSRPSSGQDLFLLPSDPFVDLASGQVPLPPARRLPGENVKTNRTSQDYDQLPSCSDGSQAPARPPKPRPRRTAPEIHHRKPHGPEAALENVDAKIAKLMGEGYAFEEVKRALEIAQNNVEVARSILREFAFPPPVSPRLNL

| Structure (SMILES) | EC50 (Jurkat cells) [nM] | IC50 (Cbl-b) [nM] |
| --- | --- | --- |
| Cc1c[nH]nc1-c1cc(C#N)ccc1-c1cc(C2CC2)nc(-n2cc(C3CC3)c3cc(CNCC4(O)CCC4)[nH]c3c2=O)c1 [Example 20, 4-[2-cyclopropyl-6-[4-cyclopropyl-2-[[(1-hydroxycyclobutyl)methylamino]-methyl]-7-oxo-1H-pyrrolo[2,3-c]pyridin-6-yl]pyridin-4-yl]-3-(4-methyl-1H-pyrazol-3-yl)benzonitrile] | 100 to 1000 | < 100 |
| COCCNCc1cc2ncn(-c3cc(-c4ccc(F)cc4-c4nc(C#N)cn4C)cc(C4CC4)n3)c(=O)c2[nH]1 [Example 107, 2-[2-[2-cyclopropyl-6-[6-[(2-methoxyethylamino)methyl]-4-oxo-5H-pyrrolo[3,2-d]pyrimidin-3-yl]pyridin-4-yl]-5-fluorophenyl]-1-methylimidazole-4-carbonitrile] | < 100 | < 100 |
| C[C@H]1CCCN(Cc2cc3c(C4CC4)cn(-c4cc(-c5ccc(F)cc5-c5cncn5C)cc(C5CC5)n4)c(=O)c3[nH]2)C1 [Example 24, 2-{[(S)-3-Methyl-1-piperidyl]methyl}-4-cyclopropyl-6-{6-cyclopropyl-4-[4-fluoro-2-(1-methyl-5-imidazolyl)phenyl]-2-pyridyl}-1,6-dihydro-1,6-diaza-7-indenone] | 1000 to 5000 | 100 to 1000 |
| CC(c1cc2c(S(C)(=O)=O)cn(-c3cc(-c4ccc(C#N)cc4-c4nccn4C)cc(C4CC4)n3)c(=O)c2[nH]1)N1CCO[C@H](C)C1 (mixture of isomers) [Example 102, 4-[2-(2-{1-[(R)-2-methyl-4-morpholinyl]ethyl}-4-mesyl-7-oxo-1,6-dihydro-1,6-diaza-6-indenyl)-6-cyclopropyl-4-pyridyl]-3-(1-methyl-2-imidazolyl)benzonitrile] | < 100 | < 100 |
| C[C@H]1CCCN(Cc2nc3c(C4CC4)cn(-c4cc(-c5ccc(F)cc5-c5nccn5C)cc(C5CC5)n4)c(=O)c3[nH]2)C1 [Example 51, 7-cyclopropyl-5-[6-cyclopropyl-4-[4-fluoro-2-(1-methylimidazol-2-yl)phenyl]pyridin-2-yl]-2-[[(3S)-3-methylpiperidin-1-yl]methyl]-3H-imidazo[4,5-c]pyridin-4-one] | < 100 | < 100 |
| C[C@H]1CCCN(Cc2cc3c(C#N)cn(-c4cc(-c5ccc(C#N)cc5-c5nccn5C)cc(C5CC5)n4)c(=O)c3[nH]2)C1 [Example 84, 2-{[(S)-3-methyl-1-piperidyl]methyl}-6-{4-[4-cyano-2-(1-methyl-2-imidazolyl)phenyl]-6-cyclopropyl-2-pyridyl}-7-oxo-1,6-dihydro-1,6-diaza-4-indenecarbonitrile] | < 100 | < 100 |
| COC[C@H](C)NCc1cc2ncn(-c3cc(-c4ccc(F)cc4-c4nc(C#N)cn4C)cc(C4CC4)n3)c(=O)c2[nH]1 [Example 111, 2-[2-[2-cyclopropyl-6-[6-[[[(2S)-1-methoxypropan-2-yl]amino]methyl]-4-oxo-5H-pyrrolo[3,2-d]pyrimidin-3-yl]pyridin-4-yl]-5-fluorophenyl]-1-methylimidazole-4-carbonitrile] | < 100 | < 100 |
| COCCN(C)Cc1cc2ncn(-c3cc(-c4ccc(F)cc4-c4nncn4C)cc(C4CC4)n3)c(=O)c2[nH]1 [Example 34, 3-[6-cyclopropyl-4-[4-fluoro-2-(4-methyl-1,2,4-triazol-3-yl)phenyl]pyridin-2-yl]-6-[[2-methoxyethyl(methyl)amino]methyl]-5H-pyrrolo[3,2-d]pyrimidin-4-one] | < 100 | < 100 |
| Cn1cnnc1-c1cc(F)ccc1-c1cc(C2CC2)nc(-n2cnc3cc(CC4CCCC4)[nH]c3c2=O)c1 [Example 121, 6-(cyclopentylmethyl)-3-[6-cyclopropyl-4-[4-fluoro-2-(4-methyl-1,2,4-triazol-3-yl)phenyl]pyridin-2-yl]-5H-pyrrolo[3,2-d]pyrimidin-4-one] | 100 to 1000 | < 100 |
| Cc1c[nH]nc1-c1cc(C#N)ccc1-c1cc(C2CC2)nc(-n2cc(C3CC3)c3cc(CN4C[C@@H]5C[C@H]4CN5)[nH]c3c2=O)c1 [Example 18, 4-[2-cyclopropyl-6-[4-cyclopropyl-2-[[(1S,4S)-2,5-diazabicyclo[2.2.1]-heptan-2-yl]methyl]-7-oxo-1H-pyrrolo[2,3-c]pyridin-6-yl]pyridin-4-yl]-3-(4-methyl-1H-pyrazol-3-yl)benzonitrile] | 1000 to 5000 | < 100 |
| COCCOCc1cc2ncn(-c3cc(-c4ccc(F)cc4-c4nncn4C)cc(C4CC4)n3)c(=O)c2[nH]1 [Example 38, 6-{6-cyclopropyl-4-[4-fluoro-2-(4-methyl-4H-1,2,4-triazol-3-yl)phenyl]-2-pyridyl}-2-[(2-methoxyethoxy)methyl]-1,6-dihydro-1,4,6-triaza-7-indenone] | 100 to 1000 | < 100 |
| Cc1ccnnc1-c1cc(F)ccc1-c1cc(C2CC2)nc(-n2cnc3cc(CN4CCO[C@H](C)C4)[nH]c3c2=O)c1 [Example 106, 3-[6-cyclopropyl-4-[4-fluoro-2-(4-methylpyridazin-3-yl)phenyl]pyridin-2-yl]-6-[[(2R)-2-methylmorpholin-4-yl]methyl]-5H-pyrrolo[3,2-d]pyrimidin-4-one] | < 100 | < 100 |
| COCCN(C)Cc1cc2ncn(-c3cc(-c4ccc(F)cc4-c4nc(C#N)cn4C)cc(C4CC4)n3)c(=O)c2[nH]1 [Example 108, 2-{2-[6-cyclopropyl-2-(2-{[(2-methoxyethyl)-N-methylamino]methyl}-7-oxo-1,6-dihydro-1,4,6-triaza-6-indenyl)-4-pyridyl]-5-fluorophenyl}-1-methyl-4-imidazolecarbonitrile] | < 100 | < 100 |
| C[C@@H]1CN(Cc2cc3c(C4CC4)cn(-c4cc(-c5c(F)cc(F)cc5-c5nccn5C)cc(C5CC5)n4)c(=O)c3[nH]2)CCO1 [Example 65, 2-{[(R)-2-methyl-4-morpholinyl]methyl}-4-cyclopropyl-6-{6-cyclopropyl-4-[4,6-difluoro-2-(1-methyl-2-imidazolyl)phenyl]-2-pyridyl}-1,6-dihydro-1,6-diaza-7-indenone] | < 100 | < 100 |
| Cn1ccnc1-c1cc(F)ccc1-c1cc(C2CC2)nc(-n2cc(C(F)(F)F)c3c(C#N)c[nH]c3c2=O)c1 [Example 136, 6-{6-cyclopropyl-4-[4-fluoro-2-(1-methyl-2-imidazolyl)phenyl]-2-pyridyl}-7-oxo-4-(trifluoromethyl)-1,6-dihydro-1,6-diaza-3-indenecarbonitrile] | < 100 | < 100 |
| COCCN(Cc1cc2ncn(-c3cc(-c4ccc(F)cc4-c4nncn4C)cc(C4CC4)n3)c(=O)c2[nH]1)CC(F)(F)F [Example 35, 6-{6-cyclopropyl-4-[4-fluoro-2-(4-methyl-4H-1,2,4-triazol-3-yl)phenyl]-2-pyridyl}-2-{[(2-methoxyethyl)(2,2,2-trifluoroethyl)amino]methyl}-1,6-dihydro-1,4,6-triaza-7-indenone] | 100 to 1000 | < 100 |
| COCCNC(c1cc2ncn(-c3cc(-c4ccc(F)cc4-c4nncn4C)cc(C4CC4)n3)c(=O)c2[nH]1)C(F)(F)F (stereo not drawn) [Example 36, 6-{6-cyclopropyl-4-[4-fluoro-2-(4-methyl-4H-1,2,4-triazol-3-yl)phenyl]-2-pyridyl}-2-[2,2,2-trifluoro-1-(2-methoxyethylamino)ethyl]-1,6-dihydro-1,4,6-triaza-7-indenone] | 100 to 1000 | < 100 |
| Cn1cnnc1-c1cc(F)ccc1-c1cc(C2CC2)nc(-n2cc(C#N)c3c(C#N)n[nH]c3c2=O)c1 [Example 27, 6-{6-cyclopropyl-4-[4-fluoro-2-(4-methyl-4H-1,2,4-triazol-3-yl)phenyl]-2-pyridyl}-7-oxo-1,6-dihydro-1,2,6-triaza-3,4-indenedicarbonitrile] | > 5000 | 100 to 1000 |

— patent US20250011318A1 (ARCUS BIOSCIENCES, INC., priority 2023, published 2025)
